In article PMC4854855 (EJNMMI Research, 2016):
Several values for one entry are separate records, joined by “and”; a condition that tells them apart may be missing. Equal values may be shown once. Entries after “also recorded” stand apart in the source; their conditions may differ.

Experiments:
PSMA+ LNCaP tumor [1] = assay: Dynamic PET imaging in LNCaP tumor-bearing BALB/c nude mice; assay type: in vivo, mouse
Description: PET imaging experiments were carried out in LNCaP and PC3 tumor-bearing Balb/c nude mice (Charles River Laboratories, Quebec, Canada). Male Balb/c nude mice were housed under standard conditions with free access to standard food and tap water. LNCaP and PC3 cells (5 × 10^6 cells in 100 μL of PBS) were injected into the upper left flank of the mice (20–24 g). Before injecting LNCaP cells, the mice received a 1.0-mg/pellet containing testosterone in a 60-day release preparation (Innovative Research of America, Sarasota, FL, USA). The pellet was implanted subcutaneously into the upper right flank in order to provide a constant level of testosterone needed by the androgen receptor positive LNCaP cells. Tumors reached sizes of approximately 1 cm^3 which were suitable for all in vivo experiments. General anesthesia of tumor-bearing mice was induced with inhalation of isoflurane in 40 % oxygen/60 % nitrogen (gas flow = […]), and the mice were subsequently fixed in prone position. The body temperature was kept constant at 37 °C for the entire experiment. The mice were positioned in a prone position into the center of the field of view. A transmission scan for attenuation correction was not acquired. […] For blocking studies, the animals were pre-dosed with 300 μg of DCFPyL in 50 μL saline about 10 min prior to radiotracer injection. Data acquisition was performed over 60 min in a 3D list mode. The dynamic list mode data were sorted into sinograms with 53 time frames (10 × 2, 8 × 5, 6 × 10, 6 × 20, 8 × 60, 10 × 120, 5 × 300 s). The frames were reconstructed using maximum a posteriori (MAP) as reconstruction mode. The pixel size was 0.085 × 0.085 × 0.121 mm^3 (256 × 256 × 63), and the resolution in the center of the field of view was 1.8 mm. No correction for partial volume effects was applied. The image files were processed using the ROVER v 2.0.51 software (ABX GmbH, Radeberg, Germany). Masks defining 3D regions of interest (ROI) were set and the ROIs were defined by thresholding. Mean standardized uptake values [SUV]mean = (activity/mL tissue)/(injected activity/body weight), mL/g, were calculated for each ROI. Time-activity curves (TACs) were generated for the dynamic scans only. All semi-quantified PET data are presented as means ± SEM. Statistical difference for the blocking study was tested by unpaired Student’s t test and was considered significant for P < 0.05.

[2] = Storage stability of labeling precursor; assay type: physicochemical; settings: solid, stored at 4 °C
PSMA− PC3 tumor [3] = assay: Dynamic PET imaging in PC3 tumor-bearing BALB/c nude mice; assay type: in vivo, mouse; settings: 60 min p.i.
Description: PET imaging experiments were carried out in LNCaP and PC3 tumor-bearing Balb/c nude mice (Charles River Laboratories, Quebec, Canada). Male Balb/c nude mice were housed under standard conditions with free access to standard food and tap water. LNCaP and PC3 cells (5 × 10^6 cells in 100 μL of PBS) were injected into the upper left flank of the mice (20–24 g). Before injecting LNCaP cells, the mice received a 1.0-mg/pellet containing testosterone in a 60-day release preparation (Innovative Research of America, Sarasota, FL, USA). The pellet was implanted subcutaneously into the upper right flank in order to provide a constant level of testosterone needed by the androgen receptor positive LNCaP cells. Tumors reached sizes of approximately 1 cm^3 which were suitable for all in vivo experiments. General anesthesia of tumor-bearing mice was induced with inhalation of isoflurane in 40 % oxygen/60 % nitrogen (gas flow = […]), and the mice were subsequently fixed in prone position. The body temperature was kept constant at 37 °C for the entire experiment. The mice were positioned in a prone position into the center of the field of view. A transmission scan for attenuation correction was not acquired. […] Mean standardized uptake values [SUV]mean = (activity/mL tissue)/(injected activity/body weight), mL/g, were calculated for each ROI. […] All semi-quantified PET data are presented as means ± SEM. […]

PSMA+ LNCaP cells = assay: Cell-specific internalization experiment in LNCaP cells; assay type: cell-based
Description: (§1) 10^5 LNCaP or PC3 cells were seeded in poly-D-lysine-coated 12-well plates 24–48 h before the assay so that cells could reach 95 % confluency. The medium was removed 1 h before the assay, and the cells were rinsed twice with PBS. After the addition of Krebs buffer (1 mL) to each well, the cells were incubated at 37 °C. […] Cellular uptake was stopped by removing incubation media from the cells and washing the wells twice with ice-cold PBS buffer (1 mL). Surface-bound radioactivity was removed from the cells through incubating the cells twice with 0.5 mL glycine-HCl in PBS (50 mM, pH 2.5) for 5 min at 37 °C. Cells were washed again with ice-cold PBS before the addition of radio-immunoprecipitation assay (RIPA) buffer (400 μL) to lyse the cells. Cells were returned into the incubator for 10 min, and cell lysates were collected for counting. Radioactivity of surface-bound and internalized fraction was measured in a WIZARD2 Automatic gamma counter (Perkin Elmer, Waltham, MA, USA). Total protein concentration in the samples was determined by the bicinchoninic acid method (BCA; Pierce, Thermo Scientific 23227) using bovine serum albumin (800, 600, 400, 300, 200, 100, 50 μg/mL, blank) as protein standard. Data are expressed as percent of total uptake per 1 mg protein (% of total uptake/mg protein).

PSMA− PC3 cells = assay: Cell-specific internalization experiment in PC3 cells; assay type: cell-based; settings: 60 min, 37 °C
Description: as §1

[4] = Radiometabolite analysis / in vivo metabolic stability in BALB/c mice; design: species or system mouse
Description: Venous blood samples were collected at 5, 15, 30, and 60 min p.i. via the mouse tail vein and further processed. Blood cells were separated by centrifugation (13,000 rpm × 5 min). Precipitation of proteins in the supernatant was achieved by the addition of 2 volume parts of MeOH, and the samples were centrifuged again (13,000 rpm × 5 min). Fractions of blood cells, proteins, and plasma were measured in a Wizard gamma counter to determine radioactivity per sample. The clear plasma supernatant was injected onto a Shimadzu HPLC system.
The samples were analyzed using a Phenomenex Luna 10u C18 [2] 100 A, 250 × 4.6 mm column at a constant flow rate of 1 mL min^−1 and the following gradient with water/0.2 % TFA as solvent A and CH3CN as solvent B: 0–7.5 min 20 % B, 7.5–15 min gradient to 90 % B, 15–20 min 90 % B.

PSMA+ LNCaP tumor [5] = assay: Tracer kinetic analysis (reversible two-tissue compartmental model), LNCaP tumors; assay type: in vivo, mouse
Description: (§2) Tracer kinetic analysis was performed using a two-tissue compartmental model using dynamically acquired PET imaging data. Full details on tracer kinetic analysis are given in the Additional file 1. […] Tracer kinetic analysis was carried out with PET imaging data acquired dynamically from PSMA+ LNCaP and PSMA− PC3 tumor-bearing mice (see Fig. 7). Four kinetic parameters (K1, k2, k3, k4) describing the flow of the radiotracer from the blood to the tissue (K1) and from the tissue into the blood (k2), binding of the radiotracer to the tissue (k3) and dissociation from the tissue (k4), were calculated. The analysis was performed by fitting the measured TACs with a two-exponential model of the general form as described, e.g., by van den Hoff (Additional file 1: Figure S2). Tracer kinetic analysis was performed using a two-tissue compartmental model using dynamically acquired PET imaging data. A volume of interest (VOI) was defined for the tumor using the Rover software (ABX GmbH, Dresden, Germany) by applying a threshold of 50% SUVmax within an ellipsoid mask around the tumor on an image representing the average of the last 40 min of the acquisition (i.e. excluding the tracer uptake phase). Image derived input functions were obtained from regions around the heart, defined by the injected blood bolus visible in the first few time fames of the dynamic acquisitions, using a threshold of 75% of SUVmax in that region. Four kinetic parameters (K1, k2, k3, k4) and the fractional blood volume (fbv) which accounts for the non-zero vascular space within the tumor ROI, describe the model. The analysis was carried out by fitting the measured tumor time-activity curves (TACs) with a two-exponential model of the general form: The fit of equation [1] to the experimentally acquired tumor TACs was implemented in Matlab (The Mathworks, Inc., v. R2014b), utilizing a Nelder-Mead simplex direct search. The fit was governed by the minimization of the sum over all time points of square differences between the measured values and the model prediction (Figure S2).

PSMA− PC3 tumor [6] = assay: Tracer kinetic analysis (reversible two-tissue compartmental model), PC3 tumors; assay type: in vivo, mouse
Description: as §2

[7] = Stability of the product in saline (quality control); assay type: physicochemical; settings: up to 4 h
Description: Radio-TLC analysis on silica gel plates gave a Rf value of 0.6 in 95 % CH3CN/H2O (Additional file 1: Figure S4).
[^18F]fluoride. Radio-TLC analysis on silica gel plates gave a Rf value of 0.6 in 95 % CH3CN/H2O (Additional file 1: Figure S4), and the product was stable (>95 %) in saline of up to 4 h.

[8] = LNCaP, two-tissue compartmental model

For `O=C(O)CC[C@H](NC(=O)N[C@@H](CCCCNC(=O)c1ccc(F)nc1)C(=O)O)C(=O)O` [DCFPyL, reference compound], the “reduction of [18F]DCFPyL radioactivity uptake in LNCaP tumor upon pretreatment with DCFPyL” value (PSMA+ LNCaP tumor [1]; 60 min p.i., 300 μg DCFPyL before radiotracer) was 80%.

In the case of `CC(C)(C)OC(=O)CCC(NC(=O)NC(CCCCNC(=O)c1ccc([N+](C)(C)C)nc1)C(=O)OC(C)(C)C)C(=O)OC(C)(C)C` (centres unmarked) [Compound 9], the “storage time without significant decomposition” value [2] is reported as “at least 3 months”.

In the case of `O=C(O)CCC(NC(=O)NC(CCCCNC(=O)c1ccc([18F])nc1)C(=O)O)C(=O)O` [[^18F]DCFPyL, (S)-2-[3-((S)-1-carboxy-5-[3-(6-fluoropyridine)carbonyl)amino)pentyl)ureido]-pentanedioic acid], the “SUV5min, radioactivity uptake in LNCaP tumors” value (PSMA+ LNCaP tumor [1]; 5 min p.i., dynamic PET) is reported as 0.95, the “SUV60min, muscle as reference tissue” value (PSMA+ LNCaP tumor [1]; 60 min p.i.) is reported as 0.06 and the “SUV60min, radioactivity uptake in LNCaP tumor (control)” value (PSMA+ LNCaP tumor [1]; 60 min p.i., dynamic PET) is reported as 1.1 and 1.1 ± 0.1. For the same compound, the “SUV60min, LNCaP tumor, blocked” value (PSMA+ LNCaP tumor [1]; 60 min p.i., pre-dosed with 300 μg nonradioactive DCFPyL) was 0.22 and 0.2 ± 0.05, the “SUV60min, radioactivity uptake in PC3 tumors” value (PSMA− PC3 tumor [3]) was 0.11 and 0.1 and the “radioactivity uptake, internalized fraction” value (PSMA+ LNCaP cells; 60 min, 37 °C) was 35.05 ± 0.69 % of total uptake/mg protein. The “radioactivity uptake, membrane-bound fraction” value (PSMA+ LNCaP cells; 60 min, 37 °C) was 45.47 ± 1.01 % of total uptake/mg protein, the “fraction of internalized radioactivity” value (PSMA+ LNCaP cells; 60 min incubation) was 44% and the “radioactivity uptake, internalized fraction” value (PSMA− PC3 cells) was 0.76 ± 0.05 % of total uptake/mg protein. The “radioactivity uptake, membrane-bound fraction” value (PSMA− PC3 cells) was 4.30 ± 0.40 % of total uptake/mg protein, the “radiometabolites in urine (radio-HPLC)” value ([4]; 60 min p.i.) was “contained only parent compound; also recorded: no radiometabolites were detected” and the “binding to plasma proteins (distribution in blood)” value ([4]; n = 3) was “low binding of the radiotracer to blood cells and plasma proteins; also recorded: only minimal binding to plasma proteins”. The “radiometabolites in plasma (radio-HPLC)” value ([4]; over 60 min p.i.) was “no radiometabolites were detected”, the “coefficient k3/(k3 + k2), fraction entering the second compartment” value (PSMA+ LNCaP tumor [5]; LNCaP tumors) was 0.314 and the “retention k3/k4” value (PSMA+ LNCaP tumor [5]; LNCaP tumors) was 20.5. The “K1 (flow of radiotracer from blood to tissue)” value (PSMA+ LNCaP tumor [5]; [8]) was 0.12 min⁻¹, the “k2 (flow from tissue into blood)” value (PSMA+ LNCaP tumor [5]; [8]) was 0.18 min⁻¹ and the “k3 (binding of radiotracer to tissue)” value (PSMA+ LNCaP tumor [5]; [8]) was 0.08 min⁻¹ and 0.082 min⁻¹. The “k4 (dissociation from tissue)” value (PSMA+ LNCaP tumor [5]; [8]) was 0.004 min⁻¹, the “coefficient k3/(k3 + k2), fraction entering the second compartment” value (PSMA− PC3 tumor [6]) was 0.058 and the “k3 (binding of radiotracer to tissue)” value (PSMA− PC3 tumor [6]) was 0.008. The “net delivery K1/k2” value (PSMA− PC3 tumor [6]) was 0.49, the “retention k3/k4” value (PSMA− PC3 tumor [6]) was 0.13 and the “stability of product in saline” value [7] was over 95%.
